One data set deals with Jurkat-cells. Description: Cell adherence to polystyrene culture dishes in the presence of various substances, with trypan blue vitality check (Jurkat). The procedure: (§1) 50 μl of the cell suspension described above were added.
(§2) The samples were incubated for 30 minutes at 37° C. The supernatant with non-adhered cells was removed and replaced by buffer. The adherence was qualitatively evaluated (refer to table 3). The cells in both supernatant and the wells were stained with trypanblue solution (0.2%, SIGMA Aldrich GmbH, Steinheim) in order to examine the vitality of the cells.

For another data set, the system named is U937-cells. Description: Cell adherence to polystyrene culture dishes in the presence of various substances, with trypan blue vitality check (U937). The note with it: for U937 Adherence: 30 minutes at 37° C., polystyrene 24-well plate. The procedure:
as §1, §2

polyvinyl alcohol [PVA 30,000–70,000]: in the data set with Jurkat-cells, the “Jurkat Vitality” value was 97%. Also, the “U937 Vitality” value with U937-cells is reported as 98%.
For Bovine serum albumin [BSA], the “Jurkat Adherence” value in the data set with Jurkat-cells (0.1% in PBS, 30 minutes at 37° C., polystyrene 24-well plate) turned out to be 99. The “U937 Adherence” value in the data set on U937-cells (0.1% in PBS) was 999; in the data set on U937-cells (0.5% in PBS), 99.
For the substance polyethylene glycol 5,000 [PEG 5,000], the “Jurkat Vitality” value in the data set on Jurkat-cells came to 100%. Moreover, the “U937 Vitality” value in the data set with U937-cells was determined as 100%.
With polyvinyl pyrrolidone 15 [PVP 15], the “Jurkat Vitality” value in the data set with Jurkat-cells is given as 100%. Also, the “U937 Vitality” value with U937-cells turned out to be 100%.
polyvinyl pyrrolidone 25 [PVP 25]: in the data set with Jurkat-cells, the “Jurkat Vitality” value was determined as 100%. Further, in the data set on U937-cells, the “U937 Vitality” value is recorded as 100%.
